Assay results reported in paper PMC6668024 (Journal of medicinal chemistry, 2018).

Columns and labels:
[1] = molecular target: T1, Topo I-DNA cleavage complex (Homo sapiens, UniProt P11387); assay: Topo I-mediated DNA cleavage assay; type: biochemical; conditions: EB-containing gel; for Topo I-mediated DNA cleavage (amount of nicked DNA): 100 μM or 50 μM
T1 sequence (P11387 1-765): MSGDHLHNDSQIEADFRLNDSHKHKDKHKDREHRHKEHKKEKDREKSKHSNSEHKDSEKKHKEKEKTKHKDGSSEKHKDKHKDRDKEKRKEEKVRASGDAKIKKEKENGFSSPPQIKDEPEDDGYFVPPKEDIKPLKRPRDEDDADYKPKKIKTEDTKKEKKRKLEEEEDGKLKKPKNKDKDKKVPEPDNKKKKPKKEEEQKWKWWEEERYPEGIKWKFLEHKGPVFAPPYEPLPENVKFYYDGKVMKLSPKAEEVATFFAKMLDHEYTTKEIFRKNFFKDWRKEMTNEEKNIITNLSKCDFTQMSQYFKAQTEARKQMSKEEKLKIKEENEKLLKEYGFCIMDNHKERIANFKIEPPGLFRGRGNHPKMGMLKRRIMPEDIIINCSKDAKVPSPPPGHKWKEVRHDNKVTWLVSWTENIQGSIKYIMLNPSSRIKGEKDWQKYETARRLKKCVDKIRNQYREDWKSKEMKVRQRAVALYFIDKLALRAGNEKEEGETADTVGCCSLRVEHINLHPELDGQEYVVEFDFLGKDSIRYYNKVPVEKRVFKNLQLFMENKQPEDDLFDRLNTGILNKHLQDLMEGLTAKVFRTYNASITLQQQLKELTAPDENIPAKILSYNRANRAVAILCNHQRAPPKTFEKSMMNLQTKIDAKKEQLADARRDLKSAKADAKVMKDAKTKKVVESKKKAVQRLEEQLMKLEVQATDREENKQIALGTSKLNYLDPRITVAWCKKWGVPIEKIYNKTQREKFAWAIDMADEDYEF

Topo I = molecular target: T2, Topo I (Homo sapiens, UniProt P11387); assay: Topo I inhibitory activity assay; type: biochemical
T2 sequence (P11387 1-765): T1 sequence (P11387 1-765)

A549 = assay: MTT cytotoxicity assay, A549; type: cell-based, human; conditions: 48 h
SGC-7901 = assay: MTT cytotoxicity assay, SGC-7901; type: cell-based, human; conditions: SGC-7901, MTT, 48 h
MCF-7 = assay: MTT cytotoxicity assay, MCF-7; type: cell-based, human; conditions: MCF-7, MTT, 48 h
QGY-7703 = assay: MTT cytotoxicity assay, QGY-7703; type: cell-based, human; conditions: QGY-7703, MTT, 48 h
BEL-7402 = assay: MTT cytotoxicity assay, BEL-7402; type: cell-based, human; conditions: BEL-7402, MTT, 48 h
SMMC-7721 = assay: MTT cytotoxicity assay, SMMC-7721; type: cell-based, human; conditions: SMMC-7721, MTT, 48 h
SK-N-SH = assay: MTT cytotoxicity assay, SK-N-SH; type: cell-based, human; conditions: 48 h
KB = assay: MTT cytotoxicity assay, KB; type: cell-based, human; conditions: 48 h
MDA-MB-231 = assay: MTT cytotoxicity assay, MDA-MB-231; type: cell-based, human; conditions: MDA-MB-231, MTT, 48 h
HepG-2 = assay: MTT cytotoxicity assay, HepG-2; type: cell-based, human; conditions: HepG-2, MTT, 48 h
MGC80-3 = assay: MTT cytotoxicity assay, MGC80-3; type: cell-based, human; conditions: MGC80-3, MTT, 48 h
Aqueous solubility = conditions: parental compounds
[2] = for body weight of treated mice: HepG-2 xenograft mice, treatment for 30 days, doses as in Figure 5
TNF-α = TNF-α in serum, LPS sepsis model; type: in vivo, C57BL/6 mice; conditions: serum 72 h after LPS
IL-6 = IL-6 in serum, LPS sepsis model; type: in vivo, C57BL/6 mice; conditions: serum 72 h after LPS
[3] = In vivo pharmacokinetics, plasma levels by LC-MS/MS; parameters: species or system male C57BL/6 mice; conditions: for parent compound (4 or 3) in plasma after i.v. dosing of the ester: 2 mg/kg intravenously
[4] = 50 μM and 100 μM, EB-free gel (Figure 3a, 3b)

CC[C@@]1(O)C(=O)OCc2c1cc1n(c2=O)Cc2cc3ccccc3nc2-1 [CPT, Camptothecin, reference compound]
Topo I-mediated DNA cleavage (amount of nicked DNA) [1]: can increase the amount of nicked DNA | Topo I inhibitory activity (Topo I; [4]): can inhibit Topo I activity

CC[C@@]1(O)C(=O)OCc2c1cc1n(c2=O)Cc2cc3c(CN(C)C)c(O)ccc3nc2-1 [Topotecan, reference compound]
Topo I-mediated DNA cleavage (amount of nicked DNA) [1]: can increase the amount of nicked DNA

CC[C@@]1(O)C(=O)OCc2c1cc1n(c2=O)Cc2cc3c(ccc4oc(C(C)C)nc43)nc2-1 [Compound 4, (S)-8-Ethyl-8-hydroxy-2-isopropyl-8H-oxazolo[4,5-f]pyrano[3',4':6,7]indolizino[1,2-b]quinoline-9,12(11H,14H)-dione]
solubility (physchem): < 2 µg/mL | Topo I inhibitory activity (Topo I; 50 μM, EB-free gel (Figure 4)): weak inhibitor

(9S)-9-Ethyl-9-hydroxy-3-isopropyl-2,3-dihydro-[1,3]oxazino[5,6-f]pyrano[3',4':6,7]indolizino[1,2-b]quinoline-1,10,13(9H,12H,15H)-trione [Compound 3]
IC50 (A549): 2.17 µM | IC50 (SGC-7901): > 10 µM | IC50 (MCF-7): 10.8 µM | IC50 (QGY-7703): > 10 µM | IC50 (BEL-7402): > 10 µM | IC50 (SMMC-7721): > 10 µM | IC50 (SK-N-SH): 0.325 µM | IC50 (KB): 9.76 µM | IC50 (MDA-MB-231): 1.32 µM | IC50 (HepG-2): 1.11 µM | IC50 (MGC80-3): 0.39 µM | aqueous solubility (Aqueous solubility): < 2 µg/mL | Topo I inhibitory activity (Topo I; 50 μM, EB-free gel (Figure 4)): high

CC[C@@]1(OC(=O)CNC(=O)CCC(=O)O)C(=O)OCc2c1cc1n(c2=O)Cc2cc3c4c(ccc3nc2-1)OC(C(C)C)NC4=O (stereo partly drawn) [Compound 11, 4-((2-(((9S)-9-Ethyl-3-isopropyl-1,10,13-trioxo-1,2,3,9,10,12,13,15-octahydro-[1,3]oxazino[5,6-f]pyrano[3',4':6,7]indolizino[1,2-b]quinolin-9-yl)oxy)-2-oxoethyl)amino)-4-oxobutanoic acid]
body weight of treated mice [2]: no major influence on body weight | side effects, pathological anatomy of viscera ([2]; oral administration compared with the i.v. dosage): increases the occurrence of gastrointestinal flatulence | expression of TNF-α in mouse serum (TNF-α): suppressed | expression of IL-6 in mouse serum (IL-6): suppressed | Topo I-mediated DNA cleavage (stabilization of cleavage complex) ([1]; 50 μM): failed to stabilize Topo I-DNA cleavage complex | parent compound (4 or 3) in plasma after i.v. dosing of the ester ([3]; mice): very low concentration | concentration in plasma through oral administration ([3]; mouse, in vivo, po): extremely low | Topo I inhibitory activity (Topo I; [4]): almost inactive

CC[C@@]1(OC(=O)CNC(=O)CCC(=O)O)C(=O)OCc2c1cc1n(c2=O)Cc2cc3c(ccc4oc(C(C)C)nc43)nc2-1 [Compound 9, (S)-4-((2-((8-Ethyl-2-isopropyl-9,12-dioxo-9,11,12,14-tetrahydro-8H-oxazolo[4,5-f]pyrano[3',4':6,7]indolizno[1,2-b]quinolin-8-yl)oxy)-2-oxoethyl)amino)-4-oxobutanoic acid]
body weight of treated mice [2]: no major influence on body weight | survival of xenograft mice on oral dosing ([2]; daily oral dose 5 mg/kg): most mice failed to reach the end point | expression of TNF-α in mouse serum (TNF-α): suppressed | expression of IL-6 in mouse serum (IL-6): suppressed | Topo I-mediated DNA cleavage (amount of nicked DNA) [1]: can increase the amount of nicked DNA | parent compound (4 or 3) in plasma after i.v. dosing of the ester ([3]; mice): not detected | concentration in plasma through oral administration ([3]; single oral administration, mice): extremely low | Topo I inhibitory activity (Topo I; [4]): weak inhibition
